According to the NIST ThermoML archive (doi:10.1021/je0301951):

Assay: wn = mass fraction of the nth substance listed
Settings: Liquid, w2 = 1

Row | binary diffusion coefficient (293 K) | binary diffusion coefficient (298 K) | binary diffusion coefficient (303 K) | binary diffusion coefficient (308 K) | binary diffusion coefficient (313 K) | Structure (SMILES)
1 | 1.71e-09 m2/s | 1.9e-09 m2/s | 2.13e-09 m2/s | 2.47e-09 m2/s | 2.86e-09 m2/s | O=C=O [carbon dioxide] + O
2 | 1.54e-09 m2/s | 1.8e-09 m2/s | 1.98e-09 m2/s | 2.29e-09 m2/s | 2.58e-09 m2/s | [N-]=[N+]=O [nitrous oxide] + O
